# Data published in patent US20260273047A1, “COMPOSITIONS AND METHODS FOR AMELIORATING ADVERSE EFFECTS OF THERAPIES” (MDX Management LLC, priority 2023, published 2026).
# “Also recorded” adds a separate entry of the source.
# Columns and labels:
# [1] = system: malignant melanoma and advanced malignancies; details: cited from earlier work
# MC38 = MC38 tumors treated intratumorally with TPI-1 and T cell activating agents; format: in vivo, C57Bl/6 mice
# Procedure: Inhibition of SHP-1 was tested in vivo for tumor therapies. […] Tumor growth was measured over time until the tumors reached 2.0 cm in diameters. […] Anti-PD-1 antibody was 205[…] 50 μg by intratumoral injection every 3 days. Anti-CD3 antibody and anti-CD28 antibody were each 205[…] 50 μg by intratumoral injection in a single dose.
# 4T1 breast cancer = format: in vivo; details: lotion twice a day; anti-PD-1 100 μg i.p. every three days; all groups prophylactic anti-TNFα mAb
# Procedure: Efficacy of topical treatments against tumor growth and/or progression was tested using murine models of cutaneous/subcutaneous breast cancer. […] Palpable tumors were formed in 10-15 days and were traced by bioluminescence imaging. Tumor sizes were measured manually, and the volume was calculated by the equation=[length (mm)×width (mm)×width (mm)]/2. Once the total tumor volume reached ≥200 mm^3, treatments were started.
# Treatment groups included: (i) Control treatment (ctl.), wherein mice received topical non-drug lotion (vehicle) only; (ii) αPD-1 treatment, wherein mice received topical non-drug lotion (vehicle) treatment along with 100 μg of anti-PD-1 monoclonal antibody once every three days through intraperitoneal injection; (iii) Topical treatment with TLR agonists only (i.e. Condition A), wherein mice received aTLR (Resiquimod (R848) and polyI:C) prepared in Johnson's lotion, each at 100 μg/ml in a final volume of 100-200 μL lotion: (iv) Topical treatment with SHP-1 inhibitors only (i.e. Condition B), wherein mice received deuterated TPI-1 (dTPI-1) at 100 μg/ml in a final volume of 100-200 μL lotion; (v) Topical treatment with Conditions A+B only in a final volume of 100-200 μL lotion; and (vi) Topical treatment with Conditions A+B in a final volume of 100-200 μL lotion and systemic αPD-1 treatment. […]
structure (smiles),measurement,setting,value
"O.O.O.O.O.O.O.O.O.O=C([O-])[C@@H]1[O][Sb]2([O-])([O][Sb]34([OH])[O][C@H]([C@H](O)CO)[C@H]([O]3)[C@H](C(=O)[O-])[O]4)[O][C@H]([C@H](O)CO)[C@@H]1[O]2.[Na+].[Na+].[Na+] [SSG, sodium stibogluconate]","most common toxic side-effects, frequency","[1]; thrombocytopenia, elevated serum lipase, fatigue, fever, chills, anemia, hypokalemia, pancreatitis, skin rash",up to 68 % of patients
same,effect against tumor development,"[1]; with interferons, followed or not by chemotherapy",no effect was seen against tumor development
"O=C1C=CC(=O)C(c2cc(Cl)ccc2Cl)=C1 [TPI-1, 2-(2,5-dichlorophenyl)benzoquinone]","effect of adding TPI-1 to αPD-1, IL-2, anti-CD3/CD28 or αPD-1+IL-2","MC38; TPI-1 1 mg/kg every 2 days, 1 mg/kg","enabled the intratumoral injection of αPD-1, IL-2, or anti-CD3/CD28 to achieve strong anti-tumor effects; also recorded: instantly overcame treatment resistance"
same,"effect on established tumors, such as MC38, KPC, or LLC",MC38; agent alone,only minor effects
same,MC38 tumor growth / resistance,"MC38; intratumoral, agent without SHP-1 inhibitor, or TPI-1 alone (1 mg/kg every 2 days)",did not attenuate tumor growth; also recorded: did not stop tumor progression
[2H]C1=C([2H])C(=O)C(c2c([2H])c(Cl)c([2H])c([2H])c2Cl)=C([2H])C1=O [dTPI-1],4T1 tumor growth / progression,4T1 breast cancer,only slightly delayed tumor progression
